# Assay results as given in ChEMBL document CHEMBL5137099, “Discovery of Novel cccDNA Reducers toward the Cure of Hepatitis B Virus Infection” (J Med Chem, 2022).
# Experiments:
# [1] = test system: Hepatitis B virus; assay: Antiviral activity against HBV infected in human HepG2 cells assessed as reduction in HBeAg secretion incubated for 5 days by counter screen assay; type: functional, organism-based; settings: HepG2, 120 h
# [2] = test system: Hepatitis B virus; assay: Antiviral activity against HBV infected in human HepDES19 cells assessed as reduction in HBV cccDNA production by measuring inhibition of HBeAg secretion incubated for 5 days by ELISA; type: functional, organism-based; settings: HepDES19, 120 h
# [3] = Permeability of the compound by PAMPA analysis; type: ADME; settings: read-out: permeability
# [4] = Aqueous solubility of the compound; type: physicochemical; settings: buffer
# [5] = Metabolic stability in human microsomes assessed as clearance; type: ADME, Microsome; settings: read-out: CLH
IC50 [2],Papp [3],solubility [4],CLint scaled [5],Structure (SMILES),IC50 [1]
14.1 µM,1.64 ×10⁻⁶ cm/s,,,O=C1Nc2cccc(Cl)c2Oc2cc(N3CCC(C(=O)O)C3)ccc21 (configuration not stated),> 50 µM
19.2 µM,6.73 ×10⁻⁶ cm/s,< 1 µg/mL,,OC1(C(F)(F)F)c2ccc(N3CCCC3)cc2Oc2c(Cl)cccc21 (configuration not stated),> 50 µM
0.21 µM,0.95 ×10⁻⁶ cm/s,< 1 µg/mL,20.5 mL/min/kg,O=c1c2ccc(N3CCCC3)cc2oc2c(F)cccc12,> 50 µM
0.17 µM,6.73 ×10⁻⁶ cm/s,< 1 µg/mL,15.7 mL/min/kg,CCNc1ccc2c(=O)c3cccc(Cl)c3oc2c1,> 50 µM
4.85 µM,0.79 ×10⁻⁶ cm/s,23 µg/mL,6.7 mL/min/kg,NC1CCN(c2ccc3c(=O)c4cccc(F)c4oc3c2)C1 (configuration not stated),> 50 µM
> 50 µM,1 ×10⁻⁶ cm/s,< 415 µg/mL,,O=C1Nc2ccc(N3CCC(C(=O)O)C3)cc2Oc2c(Cl)cccc21 (configuration not stated),> 50 µM
0.98 µM,0.49 ×10⁻⁶ cm/s,< 1 µg/mL,20.2 mL/min/kg,O=c1c2ccc(N3CCCCC3)cc2oc2c(Cl)cccc12,> 50 µM
0.61 µM,0.36 ×10⁻⁶ cm/s,< 1 µg/mL,22.6 mL/min/kg,CCNc1ccc2c(=O)c3cccc(F)c3oc2c1,> 50 µM
6.21 µM,8.5 ×10⁻⁶ cm/s,< 1 µg/mL,19.7 mL/min/kg,CC(=O)Nc1ccc2c(=O)c3cccc(F)c3oc2c1,> 50 µM
> 50 µM,1.26 ×10⁻⁶ cm/s,< 506 µg/mL,,O=C(O)C1CCN(c2ccc3c(c2)Oc2c(Cl)cccc2S3(=O)=O)C1 (configuration not stated),> 50 µM
11.5 µM,2.79 ×10⁻⁶ cm/s,290 µg/mL,6.2 mL/min/kg,O=C(O)C1CCCN1c1ccc2c(=O)c3cccc(Cl)c3oc2c1 (configuration not stated),> 50 µM
50 µM,1.55 ×10⁻⁶ cm/s,410 µg/mL,6.2 mL/min/kg,O=C(O)C1CCN(c2ccc3c(=O)c4cccc(Cl)c4oc3n2)C1 (configuration not stated),> 50 µM
1.5 µM,0.015 ×10⁻⁶ cm/s,< 1 µg/mL,,CC1c2ccc(N3CCCC3)cc2Oc2c(Cl)cccc21 (configuration not stated),> 50 µM
3.99 µM,,< 1 µg/mL,,Fc1cccc2c1Oc1cc(N3CCCC3)ccc1C2,> 50 µM
1.11 µM,0.36 ×10⁻⁶ cm/s,< 1 µg/mL,,Clc1cccc2c1Oc1cc(N3CCCC3)ccc1C2,> 50 µM
19.2 µM,9.1 ×10⁻⁶ cm/s,,20.6 mL/min/kg,O=c1c2ccc(N3CCCC3)nc2oc2c(F)cccc12,> 50 µM
5.86 µM,2.09 ×10⁻⁶ cm/s,< 1 µg/mL,,O=C1Nc2ccc(N3CCCC3)cc2Oc2c(Cl)cccc21,> 50 µM
7.33 µM,0.09 ×10⁻⁶ cm/s,,,Clc1cccc2c1Oc1cc(N3CCCC3)ccc1C2C1COC1 (configuration not stated),> 50 µM
12.7 µM,0.98 ×10⁻⁶ cm/s,294 µg/mL,,CC1(C)CN(c2ccc3c(=O)c4cccc(Cl)c4oc3c2)CC1C(=O)O (configuration not stated),> 50 µM
0.43 µM,1.49 ×10⁻⁶ cm/s,< 1 µg/mL,17.5 mL/min/kg,O=c1c2ccc(N3CCC(O)C3)cc2oc2c(F)cccc12 (configuration not stated),> 50 µM
3.82 µM,2.43 ×10⁻⁶ cm/s,< 474 µg/mL,6.2 mL/min/kg,O=C(O)C1CCCN(c2ccc3c(=O)c4cccc(Cl)c4oc3c2)C1 (configuration not stated),> 50 µM
0.23 µM,0.24 ×10⁻⁶ cm/s,< 1 µg/mL,18.9 mL/min/kg,O=c1c2ccc(N3CCCC3)cc2oc2c(Cl)cccc12,> 50 µM
6.62 µM,1.55 ×10⁻⁶ cm/s,< 465 µg/mL,,O=C(O)CC1CCN(c2ccc3c(=O)c4cccc(Cl)c4oc3c2)C1 (configuration not stated),> 50 µM
7.39 µM,,,,O=C(O)[C@H]1CN(c2ccc3c(=O)c4cccc(Cl)c4oc3c2)C[C@@H]1c1ccc(F)cc1,> 50 µM
